According to US20230270745A1 (Seagen Inc., priority 2020, published 2023):

Legend:
[1] = system: CTG-0137 HER2 positive esophageal cancer PDX model; experiment: CTG-0137 esophageal cancer PDX model, tumor growth inhibition; type: in vivo, Mice; conditions: study day 15; tucatinib 50 mg/kg orally twice per day, trastuzumab 20 mg/kg intraperitoneally once every three days
Experimental: (§1) The TGI index is calculated for a particular time point (e.g., a specific number of days into an experiment or clinical trial) according to the following formula: […]
(§2) where “Tx Day 0” denotes the first day that treatment is administered (i.e., the first day that an experimental therapy or a control therapy (e.g., vehicle only) is administered) and “Tx Day X” denotes X number of days after Day 0. […] As a non-limiting example, in an experiment where study day 0 corresponds to “Tx Day 0” and the TGI index is calculated on study day 28 (i.e., “Tx Day 28”), if the mean tumor volume in both groups on study day 0 is 250 mm^3 and the mean tumor volumes in the experimental and control groups are 125 mm^3 and 750 mm^3, respectively, then the TGI index on day 28 is 125%.
(§3) Tucatinib was administered orally at a dose of 50 mg/kg twice per day for 28 days (study days 0-27). […] A vehicle-only group was included as a negative control.

Calu-3 cells = experiment: Response of Calu-3 cells to tucatinib in vitro; type: cell-based; conditions: previously demonstrated
[2] = system: CTG-0784 HER2 positive CRC PDX model; experiment: CTG-0784 CRC PDX model, tumor growth inhibition; type: in vivo, Mice; conditions: study day 29; tucatinib 50 mg/kg orally twice per day, trastuzumab 20 mg/kg intraperitoneally once every three days
Experimental: as §1, §2, §3

[3] = system: GXA 3039 HER2 positive gastric cancer PDX model; experiment: GXA 3039 gastric cancer PDX model, tumor growth inhibition; type: in vivo, Mice; conditions: study day 29; tucatinib 50 mg/kg orally twice per day, trastuzumab 20 mg/kg intraperitoneally once every three days
Experimental: as §1, §2, §3

[4] = system: Calu-3 NSCLC xenograft model; experiment: Calu-3 NSCLC xenograft model, tumor growth inhibition; type: in vivo, Mice; conditions: study day 28; tucatinib 50 mg/kg orally twice per day for 21 days, trastuzumab 20 mg/kg intraperitoneally once every three days, from study day 7
Experimental: as §1, §2
(§4) For the Calu-3 study, tucatinib was administered orally at a dose of 50 mg/kg twice per day for 21 days, beginning on study day 7. […] A vehicle-only group was included as a negative control.

[5] = system: CTG-0138 HER2 positive esophageal cancer PDX model; experiment: CTG-0138 esophageal cancer PDX model, tumor growth inhibition; type: in vivo, Mice; conditions: study day 30; tucatinib 50 mg/kg orally twice per day, trastuzumab 20 mg/kg intraperitoneally once every three days
Experimental: as §1, §2, §3

NCI-H2170 cells = experiment: Response of NCI-H2170 cells to tucatinib in vitro; type: cell-based; conditions: previously demonstrated
[6] = system: GXA 3054 HER2 positive gastric cancer PDX model; experiment: GXA 3054 gastric cancer PDX model, tumor growth inhibition; type: in vivo, Mice; conditions: study day 17; tucatinib 50 mg/kg orally twice per day, trastuzumab 20 mg/kg intraperitoneally once every three days
Experimental: as §1, §2, §3

[7] = system: GXA 3038 HER2 positive gastric cancer PDX model; experiment: GXA 3038 gastric cancer PDX model, tumor growth inhibition; type: in vivo, Mice; conditions: study day 28; tucatinib 50 mg/kg orally twice per day, trastuzumab 20 mg/kg intraperitoneally once every three days
Experimental: as §1, §2, §3

[8] = system: CTG-0121 HER2 positive CRC PDX model; experiment: CTG-0121 CRC PDX model, tumor growth inhibition; type: in vivo, Mice; conditions: study day 29; tucatinib 50 mg/kg orally twice per day, trastuzumab 20 mg/kg intraperitoneally once every three days
Experimental: as §1, §2, §3

[9] = system: CTG-0927 HER2 positive cholangiocarcinoma PDX model; experiment: CTG-0927 cholangiocarcinoma PDX model, tumor growth inhibition; type: in vivo, Mice; conditions: study day 28; tucatinib 50 mg/kg orally twice per day, trastuzumab 20 mg/kg intraperitoneally once every three days
Experimental: as §1, §2, §3

[10] = system: CTG-0383 HER2 positive CRC PDX model; experiment: CTG-0383 CRC PDX model, tumor growth inhibition; type: in vivo, Mice; conditions: study day 29; tucatinib 50 mg/kg orally twice per day, trastuzumab 20 mg/kg intraperitoneally once every three days
Experimental: as §1, §2, §3

[11] = system: NCI-H2170 NSCLC xenograft model; experiment: NCI-H2170 NSCLC xenograft model, tumor growth inhibition; type: in vivo, Mice; conditions: study day 39; tucatinib 50 mg/kg orally twice per day for 21 days, trastuzumab 20 mg/kg intraperitoneally twice per week, from study day 18
Experimental: as §1, §2, §4
For the NCI-H2170 study, tucatinib was administered orally at a dose of 50 mg/kg twice per day for 21 days, beginning on study day 18. […] A vehicle-only group was included as a negative control.

Cc1cc(Nc2ncnc3ccc(NC4=NC(C)(C)CO4)cc23)ccc1Oc1ccn2ncnc2c1 [Tucatinib, tucatinib]
Observed TGI (tumor growth inhibition index) [1]: 49% | Response to tucatinib in vitro (Calu-3 cells): good responses | Observed TGI (tumor growth inhibition index) [2]: 50% | Observed TGI (tumor growth inhibition index) [3]: 48% | Observed TGI (tumor growth inhibition index) [4]: 63% | Observed TGI (tumor growth inhibition index) [5]: 69% | Response to tucatinib in vitro (NCI-H2170 cells): good responses | Observed TGI (tumor growth inhibition index) [6]: 65% | Observed TGI (tumor growth inhibition index) [7]: 110% | Observed TGI (tumor growth inhibition index) [8]: 104% | Observed TGI (tumor growth inhibition index) [9]: 48% | Observed TGI (tumor growth inhibition index) [10]: 117% | Observed TGI (tumor growth inhibition index) [11]: 91%
